This experiment relates to upper airway collapsibility. The experiment is described as follows: pig model of obstructive sleep apnea (OSA): collapse of the upper respiratory tract induced by negative pressure in anaesthetized, spontaneously breathing pigs. The format is in vivo, German Landrace pigs. Conditions: for effect on upper airway collapsibility: all negative pressures of −50, −100 and −150 cm H2O. From the text: The therapeutic potential of the combination of an α2-Adrenoceptor subtype C (alpha-2C) antagonists with a TASK1/3 channel blocker according to the present invention in sleep apnea has been assessed preclinically in a pig model of obstructive sleep apnea (OSA).
Using negative pressure. it is possible to induce collapse and thus obstruction of the upper respiratory tract in anaesthetized, spontaneously breathing pigs (Wirth K. J. et al., Sleep 36(5) (2013) pp. 699-708).
German Landrace pigs are used for the model. The pigs are anaesthetized and tracheotomized. Two tracheal cannulas are inserted into the trachea, one into the rostral part and the other into the caudal part of the trachea. Using a connection piece. the rostral cannula is connected to a tube to the negative pressure device and to the distal tracheal cannula. The distal tracheal cannula is additionally connected to a tube with an open end to atmosphere via a connection piece that served for free tracheal breathing, circumventing the upper airway. By appropriate opening and clamping of those tubes breathing can be switched from nasal breathing to breathing through the caudal tracheal cannula, circumventing the upper airway. and the (isolated) upper airway can be connected to the negative pressure device, causing airflow in the inspiratory direction.
At certain points in time. the collapsibility of the upper respiratory tract is tested by having the pig breathe via the caudal cannula and applying negative pressures of −50, −100 and −150 cm water head (cm H2O) to the upper respiratory tract. This causes the upper respiratory tract to collapse, which manifests itself in an interruption of the airflow and a pressure drop in the tube system. This test is conducted prior to the administration of the test substance and at certain intervals after the administration of the test substance. An appropriately effective test substance can prevent this collapse of the respiratory tract in the inspiratory phase.

[1] abbreviates: time 60 min after intranasal administration of 0.3 μg, TASK1/3 blocker alone.
The mark [2] stands for this setting: time 0 min (time point of i.v. bolus/start of infusion of alpha-2C antagonist).
Where [3] appears, read: time 10 min after i.v. bolus and start of i.v. infusion 0.13 μg/kg/h of alpha-2C antagonist, before nasal TASK1/3 blocker.
The mark [4] stands for this setting: time 30 min after i.v. bolus and start of i.v. infusion 0.13 μg/kg/h of alpha-2C antagonist, before nasal TASK1/3 blocker.
[5] abbreviates: time 60 min after i.v. bolus and start of i.v. infusion 0.13 μg/kg/h of alpha-2C antagonist, before nasal TASK1/3 blocker.
Where [6] appears, read: time 90 min after i.v. bolus and start of i.v. infusion 0.13 μg/kg/h of alpha-2C antagonist, before nasal TASK1/3 blocker.
Setting [7] is: time 120 min after i.v. bolus and start of i.v. infusion 0.13 μg/kg/h of alpha-2C antagonist, before nasal TASK1/3 blocker.
Where [8] appears, read: time 150 min after i.v. bolus and start of i.v. infusion 0.13 μg/kg/h of alpha-2C antagonist, before nasal TASK1/3 blocker.

SMILES strings stand for the structures.

On to `COc1cccc(C(=O)N2CCN(Cc3c(-c4ccc(Cl)cc4)nc4ccccn34)CC2)n1` [(4-{[2-(4-Chlorophenyl)imidazo[1,2-a]pyridin-3-yl]methyl}piperazin-1-yl)(6-methoxypyridin-2-yl)methanone], for which, for the setting “TASK1/TASK3 channel blocker alone, 0.3 μg”, the “effectiveness of the dose on upper airway collapsibility” value is “non effective dose”. Further, under setting [1], the “Percent pigs without collaps −50 cm H2O” value came out at 0%, the “Percent pigs without collaps −100 cm H2O” value is on record as 0% and the “Percent pigs without collaps −150 cm H2O” value was found to be 0%.

With `COCc1cccnc1N1CCN(C[C@H]2COc3ccccc3O2)CC1` [(S)-1-((2,3-dihydrobenzo[b][1,4]dioxin-2-yl)methyl)-4-(3-(methoxymethyl)pyridin-2-yl)piperazine], the “effectiveness of the dose on upper airway collapsibility” value (alpha-2C antagonist alone, i.v. bolus 0.3μg/kg + i.v. infusion 0.13 μg/kg/h) is on record as “non effective dose”. Further, the “effect on upper airway collapsibility” value (i.v. bolus 0.3μg/kg + i.v. infusion 0.13 μg/kg/h for five hours, only at time point 30 min after bolus and start of infusion) is reported as “inhibited upper airway collapsibility”; the “effect on upper airway collapsibility” value (i.v. bolus 0.3μg/kg + i.v. infusion 0.13 μg/kg/h, time point 120 min after bolus and start of infusion) is on record as “upper airway collapsibility was induced”. The “Percent pigs without collaps −50 cm H2O” value by setting is: under setting [2], 0%; under setting [3], 0%; under setting [4], 100%; under setting [5], 100%; under setting [6], 50%; under setting [7], 0%. Under setting [8], the “Percent pigs without collaps −50 cm H2O” value is reported as 0%. Moreover, the “Percent pigs without collaps −100 cm H2O” value is, setting by setting: under setting [2], 0%; under setting [3], 0%; under setting [4], 100%; under setting [5], 100%; under setting [6], 0%; under setting [7], 0%. Further, the “Percent pigs without collaps −100 cm H2O” value under setting [8] is on record as 0%. The “Percent pigs without collaps −150 cm H2O” value was 0% under setting [2]; 0% under setting [3]; 100% under setting [4]; 50% under setting [5]; 0% under setting [6]; 0% under setting [7]. Also, under setting [8], the “Percent pigs without collaps −150 cm H2O” value was 0%.

The values above are taken from patent US20220218700A1, “COMBINATION OF AN ?2-ADRENOCEPTOR SUBTYPE C (ALPHA-2C) ANTAGONISTS WITH A TASK1/3 CHANNEL BLOCKER FOR THE TREATMENT OF SLEEP APNEA” (Bayer Aktiengesellschaft, priority 2019, published 2022).
